# Experiments:
# [1] = Plasma pharmacokinetics of total radioactivity after a single oral dose of [^14C]PPI-1011 100 mg/kg; type: in vivo, Sprague-Dawley rats; conditions: single oral 100 mg/kg; for AUCInf / AUClast / Cmax / MRTInf / t1/2 / tmax / AUC Extr: plasma total radioactivity
# Protocol: The pharmacokinetics of [^14C]PPI-1011 were performed in four rats that were surgically implanted with femoral artery catheters (FAC) for blood collection at least 2 days before dosing began. [^14C]PPI-1011 was administered as a single oral dose at 100 mg/kg (200 μCi/kg). Blood samples were collected in EDTA tubes and centrifuged to obtain plasma at 1, 3, 6, 12, 18, 24, 48, and 72 h after drug administration. Duplicate aliquots of plasma (∼25 μl or higher) were transferred to liquid scintillation vials and the weights of sample aliquots were recorded. Aliquots were mixed with Ultima Gold (5 ml) as scintillation fluid and total radioactivity was determined by liquid scintillation counting (LSC) and used to calculate the total radioactive concentration.
# The PK calculations of total radioactivity in plasma were analyzed with non-compartmental analyses using Phoenix® WinNonlin® software (version 8.1). Statistical calculations for the other studies were limited to simple parameters such as means or averages, standard deviations (sd), and percentages (%). The amount of compound equivalents (Eq) in samples was calculated as concentrations expressed in μg Eq/g. Dose, MCID™ generated tissue concentrations, pharmacokinetic, and radioanalysis data were compiled using Microsoft Excel for Microsoft 365, Version 2010.
# [2] = Dose formulation stability by HPLC with radioactivity detection; type: physicochemical; conditions: 20 mg/ml in LCO with 0.1% 1-thioglycerol
# Protocol: PPI-1011 and [^14C]PPI-1011 were formulated together in liquid coconut oil (LCO) containing 0.1% 1-thioglycerol for oral dosing. For single dose studies, PPI-1011 and [^14C]PPI-1011 were combined to generate an oral formulation with a concentration of 20 mg/ml and 40 μCi/ml on the day before dosing and stored at 4°C. Formulation for the repeat dosing QWBA experiment was made on the day prior to the first dose with a concentration of 20 mg/ml and 20 μCi/ml. This formulation was then aliquoted and stored frozen at −20°C until the day of use. Concentration and radiochemical purity of all formulations were confirmed by HPLC prior to dosing.
# Radiochemical concentrations and purity of the oral dose formulations were all confirmed to be >97% by HPLC with radioactivity detection. The mean radioactivity concentrations of dose formulations were 21.24 μCi/g. Representative radiochromatograms obtained from analysis of dose formulation of [^14C]PPI-1011 are shown in Supplementary Figure S1. The retention time of [^14C]PPI-1011 was approximately 12 min. The stability of the dose formulation at 20 mg/ml concentration was examined at 4°C and at −20°C for up to 24 h. The results are shown in Supplementary Figure S2. […]
structure (smiles),measurement,setting,value
CC/C=C\C/C=C\C/C=C\C/C=C\C/C=C\C/C=C\CCC(=O)O[C@H](CO[14CH2]CCCCCCCCCCCCCCC)COC(=O)CCCCC1CCSS1 (stereo partly drawn) [[^14C]PPI-1011],Mean total radioactivity in plasma,[1]; 1 h,approximately 500 ng Eq/g
same,Mean total radioactivity in plasma,[1]; 6 h,"~27,000 ng Eq/g"
same,Mean total radioactivity in plasma,[1]; 72 h,"~4,000 ng Eq/g"
same,AUCInf,[1]; Mean of 4 rats,"867,000 h*ng/ml"
same,AUClast,[1]; Mean of 4 rats,"608,000 h*ng/ml"
same,Cmax,[1]; Mean of 4 rats,"27,900 ng/ml"
same,MRTInf,[1]; Mean of 4 rats,55 h
same,t1/2,[1]; Mean of 4 rats,40 h
same,tmax,[1]; Mean of 4 rats,7.5 h
same,AUC Extr,[1]; Rat 1,6.8%
same,AUCInf,[1]; Rat 1,"753,000 h*ng/ml"
same,AUClast,[1]; Rat 1,"702,000 h*ng/ml"
same,Cmax,[1]; Rat 1,"30,000 ng/ml"
same,MRTInf,[1]; Rat 1,27 h
same,t1/2,[1]; Rat 1,18 h
same,tmax,[1]; Rat 1,6.0 h
same,AUC Extr,[1]; Rat 2,31%
same,AUCInf,[1]; Rat 2,"953,000 h*ng/ml"
same,AUClast,[1]; Rat 2,"659,000 h*ng/ml"
same,Cmax,[1]; Rat 2,"21,500 ng/ml"
same,MRTInf,[1]; Rat 2,61 h
same,t1/2,[1]; Rat 2,42 h
same,tmax,[1]; Rat 2,6.0 h
same,AUC Extr,[1]; Rat 3,6.5%
same,AUCInf,[1]; Rat 3,"542,000 h*ng/ml"
same,AUClast,[1]; Rat 3,"507,000 h*ng/ml"
same,Cmax,[1]; Rat 3,"42,500 ng/ml"
same,MRTInf,[1]; Rat 3,23 h
same,t1/2,[1]; Rat 3,19 h
same,tmax,[1]; Rat 3,6.0 h
same,AUC Extr,[1]; Rat 4,54%
same,AUCInf,[1]; Rat 4,"1,220,000 h*ng/ml"
same,AUClast,[1]; Rat 4,"565,000 h*ng/ml"
same,Cmax,[1]; Rat 4,"17,400 ng/ml"
same,MRTInf,[1]; Rat 4,110 h
same,t1/2,[1]; Rat 4,80 h
same,tmax,[1]; Rat 4,12 h
same,Radioactive purity of dose formulation after storage (stability),[2]; up to 24 h at 4°C,96.5%
same,Radioactive purity of dose formulation after storage (stability),[2]; up to 24 h at −20°C,97.2%

# Source: publication PMC9081329, “Pharmacokinetics, Mass Balance, Excretion, and Tissue Distribution of Plasmalogen Precursor PPI-1011” (Frontiers in Cell and Developmental Biology, 2022)
